Results on ten compounds are retold here after ChEMBL document CHEMBL4390696, “Orientation preferences of hairpin pyrrole-imidazole polyamides toward mCGG site” (Bioorg Med Chem, 2019).

One may read the Kd as the constant that tells how readily two partners part at equilibrium. Usually ΔTm stands for the shift of the melting midpoint relative to a reference. What is called IC50 is the point on the concentration scale where inhibition reaches its midpoint.

The nature of experiment [1]: Binding affinity to 5'-ATCGGAT-3' DNA (unknown origin) assessed as dissociation constant incubated for 180 secs by SPR analysis.
Experiment [2] is described as follows: Binding preference index, ratio of Kd for 5'-ATmCGGAT-3' DNA (unknown origin) to Kd for 5'-ATCGGAT-3' DNA (unknown origin).
Experiment [3] in a line: Binding affinity to 5'-ATmCGGAT-3' DNA (unknown origin) assessed as dissociation rate constant incubated for 180 secs by SPR analysis.
A short description of experiment [4]: Binding affinity to 5'-ATGGmCAT-3' DNA (unknown origin) in forward orientation assessed as change in melting temperature at 5 uM by UV-vis spectrophotometry.
Experiment [5] can be described thus: Binding affinity to 5'-ATmCGGAT-3' DNA (unknown origin) assessed as dissociation constant incubated for 180 secs by SPR analysis. Background: Surface plasmon resonance follows binding to a sensor surface in real time, without labels.
Experiment [6] is described as follows: Binding affinity to 5'-ATmCGGAT-3' DNA (unknown origin) assessed as association constant incubated for 180 secs by SPR analysis.
Experiment [7] can be described thus: Binding affinity to 5'-ATCGGAT-3' DNA (unknown origin) assessed as association constant incubated for 180 secs by SPR analysis.
Experiment [8] can be described thus: Orientation preference, ratio of change in melting temperature of forward binding site of 5'-ATGGmCAT-3' DNA (unknown origin) to sum of change in melting temperature of forward binding site and change in melting temperature of reverse binding site for 5'-ATGGmCAT-3' DNA (unknown origin).
The nature of experiment [9]: Binding affinity to 5'-ATmCGGAT-3' DNA (unknown origin) in forward orientation assessed as change in melting temperature at 5 uM by UV-vis spectrophotometry.
Experiment [10] can be described thus: Binding affinity to 5'-ATCGGAT-3' DNA (unknown origin) assessed as dissociation rate constant incubated for 180 secs by SPR analysis.
A short description of experiment [11]: Orientation preference, ratio of change in melting temperature of forward binding site of 5'-ATmCGGAT-3' DNA (unknown origin) to sum of change in melting temperature of forward binding site and change in melting temperature of reverse binding site for 5'-ATmCGGAT-3' DNA (unknown origin).
Experiment [12] is described as follows: Binding affinity to 5'-ATGGmCAT-3' DNA (unknown origin) in reverse orientation assessed as change in melting temperature at 5 uM by UV-vis spectrophotometry.
A short description of experiment [13]: Binding affinity to 5'-ATmCGGAT-3' DNA (unknown origin) in reverse orientation assessed as change in melting temperature at 5 uM by UV-vis spectrophotometry.
Experiment [14] in a line: Binding affinity to mCGG containing DNA assessed as inhibition of mouse TET1 catalytic domain binding to methylated 18 bp DNAs assessed as reduction in TET1-methylated DNA complex formation incubated for 30 mins by electrophoretic mobility shift assay.

Turning to `CC(=O)Nc1cc(C(=O)Nc2cn(C)c(C(=O)Nc3cc(C(=O)Nc4cc(C(=O)NCCCC(=O)Nc5cn(C)c(C(=O)Nc6cn(C)c(C(=O)NCCC(=O)Nc7cc(C(=O)NCCC(=O)NCCCN(C)C)n(C)c7)n6)n5)n(C)c4)n(C)c3)n2)n(C)c1`, the Kd in experiment [1] was 150 nM; in experiment [5], 130 nM. The figures for the Ratio in [2] and in [8] were 0.9 and 0.59, respectively. Also, the results for the “Dissociation rate constant (koff)” value in [3] and in experiment [10] were 1.6 ×10⁻¹ /s and 1.5 ×10⁻¹ /s, respectively. Also, the shift in melting temperature (ΔTm) in [4] is 10.9 °C; in experiment [9], 7.6 °C. The values for the Ka in [6] and in experiment [7] were 1.2 ×10⁶ /M/s and 9.7 ×10⁵ /M/s, respectively.

For the compound `CC(=O)Nc1cc(C(=O)NCCC(=O)Nc2cn(C)c(C(=O)Nc3cc(C(=O)NCCCC(=O)Nc4cc(C(=O)NCCC(=O)Nc5cn(C)c(C(=O)Nc6cn(C)c(C(=O)NCCC(=O)NCCCN(C)C)n6)n5)n(C)c4)n(C)c3)n2)n(C)c1`, the Ratio in experiment [11] was 0.42; in experiment [2], 0.9. Besides, the Kd in experiment [1] is 9.8 nM; in experiment [5], 8.9 nM. Further, the ΔTm in experiment [12] was 16.2 °C; in experiment [13], 11.8 °C. Besides, the “Dissociation rate constant (koff)” value in experiment [3] worked out at 6.6 ×10⁻² /s; in [10], 8.9 ×10⁻² /s. For the same compound, the Ka amounted to 7.4 ×10⁶ /M/s in [6] and 9 ×10⁶ /M/s in experiment [7].

`CC(=O)Nc1cc(C(=O)Nc2cn(C)c(C(=O)NCCC(=O)Nc3cc(C(=O)NCCCC(=O)Nc4cn(C)c(C(=O)Nc5cn(C)c(C(=O)Nc6cc(C(=O)Nc7cc(C(=O)NCCC(=O)NCCCN(C)C)n(C)c7)n(C)c6)n5)n4)n(C)c3)n2)n(C)c1`: the Kd in [1] was 150 nM; in [5], 610 nM. Moreover, the Ratio in experiment [2] is 4.1; in experiment [8], 0.54. Besides, the figures for the “Dissociation rate constant (koff)” value in experiment [3] and in [10] were 2 ×10⁻¹ /s and 1.2 ×10⁻¹ /s, respectively. Besides, the values for the ΔTm in experiment [4] and in [9] were 12.5 °C and 10.8 °C, respectively. Moreover, the Ka in [6] was 3.2 ×10⁵ /M/s; in experiment [7], 8.2 ×10⁵ /M/s.

For `CC(=O)Nc1cc(C(=O)NCCC(=O)Nc2cn(C)c(C(=O)Nc3cc(C(=O)NCC[C@@H](N)C(=O)Nc4cc(C(=O)NCCC(=O)Nc5cn(C)c(C(=O)Nc6cn(C)c(C(=O)NCCC(=O)NCCCN(C)C)n6)n5)n(C)c4)n(C)c3)n2)n(C)c1`, the Ratio in [11] is 0.47; in experiment [2], 1. In addition, the Kd in [1] and in [5] was 1.7 nM each time. Besides, the ΔTm amounted to 17.9 °C in experiment [12] and 16 °C in [13]. Moreover, the “Dissociation rate constant (koff)” value in experiment [3] is on record as 5.3 ×10⁻³ /s; in experiment [10], 7.2 ×10⁻³ /s. Also, the values for the Ka in experiment [6] and in [7] were 3.2 ×10⁶ /M/s and 4.2 ×10⁶ /M/s, respectively. Further, in experiment [14] (read-out: IC50), the IC50 was determined as 170 nM.

With `CC(=O)Nc1cc(C(=O)Nc2cc(C(=O)Nc3cn(C)c(C(=O)Nc4cc(C(=O)NCCCC(=O)Nc5cc(C(=O)Nc6cc(C(=O)Nc7cn(C)c(C(=O)Nc8cn(C)c(C(=O)NCCC(=O)NCCCN(C)C)n8)n7)n(C)c6)n(C)c5)n(C)c4)n3)n(C)c2)n(C)c1`, the Ratio in experiment [11] is 0.19. Besides, the ΔTm in experiment [12] was 6.7 °C; in experiment [13], 1.6 °C. The half-maximal inhibitory concentration (IC50) in experiment [14] (read-out: IC50) was determined as 2560 nM.

With `CC(=O)Nc1cc(C(=O)Nc2cn(C)c(C(=O)NCCC(=O)Nc3cc(C(=O)NCCCC(=O)Nc4cn(C)c(C(=O)Nc5cn(C)c(C(=O)NCCC(=O)Nc6cc(C(=O)NCCC(=O)NCCCN(C)C)n(C)c6)n5)n4)n(C)c3)n2)n(C)c1`, the Ratio was 0.32 in experiment [11] and 1.6 in experiment [2]. Also, the Kd in experiment [1] came to 1.7 nM; in experiment [5], 2.8 nM. Further, the ΔTm in experiment [12] is 8.6 °C; in experiment [13], 18.1 °C. Besides, the “Dissociation rate constant (koff)” value in experiment [3] is recorded as 3.2 ×10⁻³ /s; in experiment [10], 2.4 ×10⁻³ /s. The Ka in [6] was determined as 1.1 ×10⁶ /M/s; in experiment [7] it was 1.4 ×10⁶ /M/s.

On to `CC(=O)Nc1cc(C(=O)NCCC(=O)Nc2cn(C)c(C(=O)Nc3cc(C(=O)NCCCC(=O)Nc4cc(C(=O)Nc5cc(C(=O)Nc6cn(C)c(C(=O)Nc7cn(C)c(C(=O)NCCC(=O)NCCCN(C)C)n7)n6)n(C)c5)n(C)c4)n(C)c3)n2)n(C)c1`, for which the Ratio in [11] is 0.2; in experiment [2], 0.9. Further, the equilibrium dissociation constant (Kd) in experiment [1] came out at 530 nM; in [5], 480 nM. Further, the shift in melting temperature (ΔTm) stood at 13.1 °C in [12] and 3.3 °C in [13]. In addition, the “Dissociation rate constant (koff)” value in experiment [3] came out at 1.5 ×10⁻² /s; in [10], 1.9 ×10⁻² /s. The Ka in experiment [6] was 3.1 ×10⁴ /M/s; in experiment [7], 3.6 ×10⁴ /M/s.

In the case of `CC(=O)Nc1cc(C(=O)Nc2cn(C)c(C(=O)NCCC(=O)Nc3cc(C(=O)NCC[C@H](N)C(=O)Nc4cn(C)c(C(=O)Nc5cn(C)c(C(=O)NCCC(=O)Nc6cc(C(=O)NCCC(=O)NCCCN(C)C)n(C)c6)n5)n4)n(C)c3)n2)n(C)c1`, the Ratio in experiment [11] was found to be 0.39; in experiment [2], 1.1. In addition, the figures for the dissociation constant (Kd) in [1] and in [5] were 3.6 nM and 2.3 nM, respectively. Besides, the shift in melting temperature (ΔTm) in experiment [12] amounted to 13.3 °C; in [13], 20.8 °C. The “Dissociation rate constant (koff)” value in experiment [3] amounted to 5.8 ×10⁻³ /s; in experiment [10], 8.6 ×10⁻³ /s. Also, the figures for the Ka in experiment [6] and in experiment [7] were 2.5 ×10⁶ /M/s and 2.4 ×10⁶ /M/s, respectively. The IC50 in experiment [14] (read-out: IC50) amounted to 120 nM.

In the case of `CC(=O)Nc1cc(C(=O)Nc2cn(C)c(C(=O)Nc3cc(C(=O)Nc4cc(C(=O)NCCCC(=O)Nc5cn(C)c(C(=O)Nc6cn(C)c(C(=O)Nc7cc(C(=O)Nc8cc(C(=O)NCCC(=O)NCCCN(C)C)n(C)c8)n(C)c7)n6)n5)n(C)c4)n(C)c3)n2)n(C)c1`, the Kd in experiment [1] was 48 nM; in experiment [5], 61 nM. The Ratio in experiment [2] is 1.3; in [8], 0.94. Further, the “Dissociation rate constant (koff)” value turned out to be 2.6 ×10⁻⁴ /s in experiment [3] and 5.9 ×10⁻⁴ /s in experiment [10]. Further, the ΔTm in experiment [4] is 21.5 °C; in experiment [9] it was 1.4 °C. The Ka in [6] is 4.3 ×10³ /M/s; in experiment [7], 1.2 ×10⁴ /M/s. Moreover, the IC50 result in experiment [14] is on record as “Not Active”.

On to `CC(=O)Nc1cc(C(=O)Nc2cc(C(=O)Nc3cn(C)c(C(=O)Nc4cc(C(=O)NCCCC(=O)Nc5cc(C(=O)NCCC(=O)Nc6cn(C)c(C(=O)Nc7cn(C)c(C(=O)NCCC(=O)NCCCN(C)C)n7)n6)n(C)c5)n(C)c4)n3)n(C)c2)n(C)c1`, for which the Ratio in experiment [11] worked out at 0.29; in [2] it was 2.2. Moreover, the Kd turned out to be 21 nM in experiment [1] and 46 nM in [5]. Further, the ΔTm worked out at 14.8 °C in [12] and 5.9 °C in experiment [13]. Further, the “Dissociation rate constant (koff)” value in experiment [3] was 2.3 ×10⁻² /s; in [10] it was 1.1 ×10⁻² /s. Also, the Ka stood at 5.1 ×10⁵ /M/s in [6] and 5.2 ×10⁵ /M/s in [7].
